Molecular target: T1, KRas G12C (Homo sapiens, UniProt P01116, G12C)
T1 construct: NCI-H358 cells (ATCC CRL-5807) express KRas G12C
Assay: Inhibition of KRas G12C-dependent cell growth: Phospho-ERK in NCI-H358 cells
Assay type: cell-based
Conditions: NCI-H358 cells expressing KRas G12C; Phospho-ERK (Thr202/Tyr204) normalized to GAPDH; 3 hours compound; 4 parameter fit
Procedure, shortened: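 Phospho-ERK read-out in KRas G12C-expressing NCI-H358 cells after 3 h compound treatment (final DMSO 0.5%), by in-cell infrared immunodetection. Signal normalized to GAPDH and to DMSO controls. 4-parameter curve fit gave IC50.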

T1 sequence (P01116 1-188 isoform P01116-2 G12C): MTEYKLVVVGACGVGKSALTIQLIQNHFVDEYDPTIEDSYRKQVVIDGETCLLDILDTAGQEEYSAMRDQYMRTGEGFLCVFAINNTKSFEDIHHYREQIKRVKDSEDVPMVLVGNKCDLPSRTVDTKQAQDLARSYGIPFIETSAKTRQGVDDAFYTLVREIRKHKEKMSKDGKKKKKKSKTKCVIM

| SMILES | IC50 |
| --- | --- |
| C=C(F)C(=O)N1CCN(c2nc(OCC3(C)COC3)nc3c(F)c(-c4cccc5ccc(F)c(Cl)c45)ncc23)C[C@@H]1CC#N [Example 154] | 221 nM |
| C=CC(=O)N1CCN(c2nc(OC[C@@H]3CCCN3C)nc3c(F)c(-c4cccc5ccc(F)c(Cl)c45)ncc23)[C@H](C)C1 [Example 155] | 585 nM |
| C=CC(=O)N1CC2(C1)CN(c1ncnc3c(F)c(-c4cccc5ccc(F)c(Cl)c45)ncc13)C2 [Example 159] | 10000 nM |
| C=C(F)C(=O)N1CCN(c2ncnc3c(F)c(-c4cc(O)cc5ccccc45)ncc23)C[C@@H]1CC#N [Example 162] | 590 nM |
| C=CC(=O)N1CCN(c2nc(OC[C@@H]3CCCN3C)nc3c(F)c(-c4cccc5ccc(F)c(Cl)c45)ncc23)CC1C(F)(F)F (stereo partly drawn) [Example 163] | 110 nM |
| C=CC(=O)N1CCN(c2nc(OC[C@@H]3CCCN3C)nc3c(F)c(-c4cccc5ccc(F)c(Cl)c45)ncc23)CC1C(F)F (stereo partly drawn) [Example 165] | 158 nM |
| C=C(F)C(=O)N1CCN(c2nc(N3CC(N(C)C)C3)nc3c(F)c(-c4cccc5ccc(F)c(Cl)c45)ncc23)C[C@@H]1CC#N [Example 170] | 19 nM |
| C=C(F)C(=O)N1CCN(c2nc(OC[C@H]3CCN3CC)nc3c(F)c(-c4cccc5ccc(F)c(Cl)c45)ncc23)C[C@@H]1CC#N [Example 172] | 18 nM |
| C=C(F)C(=O)N1CCN(c2nc(OC[C@@H]3CCN3CC)nc3c(F)c(-c4cccc5ccc(F)c(Cl)c45)ncc23)C[C@@H]1CC#N [Example 173] | 31 nM |
| C=C(F)C(=O)N1CCN(c2nc(OCC3CCC4CCCN43)nc3c(F)c(-c4cccc5ccc(F)c(Cl)c45)ncc23)C[C@@H]1CC#N (stereo partly drawn) [Example 174] | 20 nM |
| C=C(F)C(=O)N1CCN(c2nc(OC[C@@H]3[C@@H](F)CCN3C)nc3c(F)c(-c4cccc5ccc(F)c(Cl)c45)ncc23)C[C@@H]1CC#N [Example 176] | 30 nM |
| C=C(F)C(=O)N1CCN(c2nc(OC[C@H]3[C@@H](F)CCN3C)nc3c(F)c(-c4cccc5ccc(F)c(Cl)c45)ncc23)C[C@@H]1CC#N [Example 177] | 51 nM |
| C=CC(=O)N1CCN(c2ncnc3c(F)c(-c4cc(O)cc5cccc(Cl)c45)ncc23)CC1 [Example 178] | 63 nM |
| C=C(F)C(=O)N1CCN(c2nc(OCC34CCCN3C[C@H](F)C4)nc3c(F)c(-c4cccc5ccc(F)c(Cl)c45)ncc23)C[C@@H]1CC#N (stereo partly drawn) [Example 181] | 4 nM |
| C=CC(=O)N1CCN(c2ncnc3c(F)c(-c4cccc5ccc(F)c(Cl)c45)ncc23)C[C@@H]1CC(F)F [Example 183] | 10000 nM |
| C=C(F)C(=O)N1CCN(c2nc(OC[C@@H]3CCCN3CC(F)F)nc3c(F)c(-c4cccc5ccc(F)c(Cl)c45)ncc23)C[C@@H]1CC#N [Example 185] | 145 nM |
| C=CC(=O)N1CCN(c2nc(N3CCC3)nc3c(F)c(-c4cccc5ccc(F)c(Cl)c45)ncc23)C[C@@H]1CC#N [Example 187] | 74 nM |
| C=C(F)C(=O)N1CCN(c2nc(OCC34CCCN3C(CF)CC4)nc3c(F)c(-c4cccc5ccc(F)c(Cl)c45)ncc23)C[C@@H]1CC#N (stereo partly drawn) [Example 188] | 29 nM |
| C=C(F)C(=O)N1CCN(c2nc(OC[C@@H]3[C@H]4C[C@H]4CN3C)nc3c(F)c(-c4cccc5ccc(F)c(Cl)c45)ncc23)C[C@@H]1CC#N [Example 191] | 15 nM |
| C=C(F)C(=O)N1CCN(c2nc(OC[C@@H]3[C@@H]4C[C@@H]4CN3C)nc3c(F)c(-c4cccc5ccc(F)c(Cl)c45)ncc23)C[C@@H]1CC#N [Example 192] | 38 nM |
| C=C(F)C(=O)N1CCN(c2nc(OC[C@H]3[C@@H]4CC[C@@H](C4)N3CC(F)F)nc3c(F)c(-c4cccc5ccc(F)c(Cl)c45)ncc23)C[C@@H]1CC#N [Example 196] | 1730 nM |
| C=CC(=O)N1CCN(c2ncnc3c(F)c(-c4c(C)c(C)cc5[nH]ncc45)ncc23)CC1 [Example 198] | 8000 nM |
| C=CC(=O)N1CCN(c2nc(C(F)(F)F)nc3c(F)c(-c4cccc5ccc(F)c(Cl)c45)ncc23)C[C@@H]1CC#N [Example 199] | 3400 nM |
| CC#CC(=O)N1CCN(c2ncnc3c(F)c(-c4cccc5ccc(F)c(Cl)c45)ncc23)CC1 [Example 201] | 10000 nM |
| C=C(F)C(=O)N1CCN(c2nc(Oc3cccc4c3CCN(C)C4)nc3c(F)c(-c4cccc5ccc(F)c(Cl)c45)ncc23)C[C@@H]1CC#N [Example 207] | 6850 nM |
| C=C(F)C(=O)N1CCN(c2nc(OCC3(C)C(OC)CN3C)nc3c(F)c(-c4cccc5ccc(F)c(Cl)c45)ncc23)C[C@@H]1CC#N (stereo partly drawn) [Example 208] | 4 nM |

Further molecules by falling IC50, results first:

| IC50 | SMILES |
| --- | --- |
| 10000 nM | C=CC(=O)N1C[C@@H](C)N(c2ncnc3c(F)c(-c4cccc5ccc(F)c(Cl)c45)ncc23)[C@@H](C)C1 [Example 149] |
| 10000 nM | C=CC(=O)N1CCN(c2ncnc3c(F)c(-c4cccc5ccc(F)c(Cl)c45)ncc23)C(CC#N)C1 (stereo not drawn) [Example 150] |
| 10000 nM | C=CC(=O)N1CCN(c2nc(C)nc3c(F)c(-c4cccc5cccc(Cl)c45)ncc23)CC1 [Example 153] |
| 10000 nM | C=CC(=O)N1CCN(c2nc(OC[C@@H]3CCCN3C)nc3c(F)c(-c4ccccc4F)ncc23)CC1 [Example 184] |
| 10000 nM | C=CC(=O)N1CCN(c2ncnc3c(F)c(-c4ccccc4F)ncc23)[C@@H](C)C1 [Example 186] |
| 10000 nM | C=CC(=O)N1C[C@@H]2[C@H]1CCN2c1ncnc2c(F)c(-c3cccc4ccc(F)c(Cl)c34)ncc12 [Example 190] |
| 10000 nM | C=CS(=O)(=O)N1CCN(c2ncnc3c(F)c(-c4cccc5ccc(F)c(Cl)c45)ncc23)CC1 [Example 205] |
| 6280 nM | C=CC(=O)N1C[C@H](C)N(c2ncnc3c(F)c(-c4cccc5ccc(F)c(Cl)c45)ncc23)[C@@H](C)C1 [Example 148] |
| 1680 nM | C=CC(=O)N1CCN(c2nc(C)nc3c(F)c(-c4cc(O)cc5ccccc45)ncc23)CC1 [Example 206] |
| 410 nM | CN(C)CC#CC(=O)N1CCN(c2ncnc3c(F)c(-c4cccc5ccc(F)c(Cl)c45)ncc23)CC1 [Example 200] |
| 322 nM | C=CC(=O)N1CCN(c2nc(OC[C@@H]3CCCN3C)nc3c(F)c(-c4cccc5ccc(F)c(Cl)c45)ncc23)C[C@H]1C [Example 152] |
| 256 nM | C=C(F)C(=O)N1CCN(c2nc(OCC3COC3)nc3c(F)c(-c4cccc5ccc(F)c(Cl)c45)ncc23)C[C@@H]1CC#N [Example 151] |
| 165 nM | C=CC(=O)N1CCN(c2ncnc3c(F)c(-c4cccc5ccc(F)cc45)ncc23)C[C@@H]1CC#N [Example 197] |
| 153 nM | C=CC(=O)N1CCN(c2nc(OC[C@@H]3CCCN3C)nc3c(F)c(-c4cccc5ccc(F)c(Cl)c45)ncc23)CC1CF (stereo partly drawn) [Example 164] |
| 134 nM | C=C(F)C(=O)N1CCN(c2nc(OCC3CCO3)nc3c(F)c(-c4cccc5ccc(F)c(Cl)c45)ncc23)C[C@@H]1CC#N (stereo partly drawn) [Example 156] |
| 134 nM | C=CC(=O)N1CC[C@@H]2[C@H]1CN2c1ncnc2c(F)c(-c3cccc4ccc(F)c(Cl)c34)ncc12 [Example 175] |

| IC50 | SMILES |
| --- | --- |
| 68 nM | C=C(F)C(=O)N1CCN(c2nc(OC[C@H]3CN(C)CCO3)nc3c(F)c(-c4cccc5ccc(F)c(Cl)c45)ncc23)C[C@@H]1CC#N [Example 158] |
| 67 nM | C=C(F)C(=O)N1CCN(c2nc(OC[C@H]3CN(C)C[C@H]3F)nc3c(F)c(-c4cccc5ccc(F)c(Cl)c45)ncc23)C[C@@H]1CC#N [Example 193] |
| 65 nM | C=C(F)C(=O)N1CCN(c2nc(OC[C@H]3[C@H](F)CCN3C)nc3c(F)c(-c4cccc5ccc(F)c(Cl)c45)ncc23)C[C@@H]1CC#N [Example 168] |
| 64 nM | C=C(F)C(=O)N1CCN(c2nc(OC[C@@H]3CN(C)C[C@@H]3F)nc3c(F)c(-c4cccc5ccc(F)c(Cl)c45)ncc23)C[C@@H]1CC#N [Example 194] |
| 60 nM | C=C(F)C(=O)N1CCN(c2nc(OC[C@H]3C[C@@H](F)CN3C)nc3c(F)c(-c4cccc5ccc(F)c(Cl)c45)ncc23)C[C@@H]1CC#N [Example 167] |
| 60 nM | C=C(F)C(=O)N1CCN(c2nc(OC[C@@H]3CCN(C)C3)nc3c(F)c(-c4cccc5ccc(F)c(Cl)c45)ncc23)C[C@@H]1CC#N [Example 169] |
| 49 nM | C=C(F)C(=O)N1CCN(c2nc(OC[C@@H]3CC(F)(F)CN3C)nc3c(F)c(-c4cccc5ccc(F)c(Cl)c45)ncc23)C[C@@H]1CC#N [Example 210] |
| 46 nM | C=C(F)C(=O)N1CCN(c2nc(OC[C@@H]3CCCN3C3CC3)nc3c(F)c(-c4cccc5ccc(F)c(Cl)c45)ncc23)C[C@@H]1CC#N [Example 209] |
| 31 nM | C=C(F)C(=O)N1CCN(c2nc(OC[C@H]3[C@@H]4CC[C@@H](C4)N3CCF)nc3c(F)c(-c4cccc5ccc(F)c(Cl)c45)ncc23)C[C@@H]1CC#N [Example 195] |
| 27 nM | C=C(F)C(=O)N1CCN(c2nc(OC[C@@H]3CCCN3CCF)nc3c(F)c(-c4cccc5ccc(F)c(Cl)c45)ncc23)C[C@@H]1CC#N [Example 182] |
| 26 nM | C=C(F)C(=O)N1CCN(c2nc(OC[C@@H]3C[C@H](F)CN3C)nc3c(F)c(-c4cccc5ccc(F)c(Cl)c45)ncc23)C[C@@H]1CC#N [Example 166] |
| 23 nM | C=C(F)C(=O)N1CCN(c2nc(OC[C@@H]3CCCN3C)nc3c(F)c(-c4cccc5ccc(Cl)c(Cl)c45)ncc23)C[C@@H]1CC#N [Example 147] |
| 23 nM | C=C(F)C(=O)N1CCN(c2nc(OC[C@@H]3CCCN3C)nc3c(F)c(-c4cccc5ccc(F)c(F)c45)ncc23)C[C@@H]1CC#N [Example 157] |
| 22 nM | C=CC(=O)N1CCN(c2nc(OC[C@@H]3CCCN3C)nc3c(F)c(-c4cccc5ccc(F)c(Cl)c45)ncc23)CC1 [Example 171] |
| 11 nM | C=C(F)C(=O)N1CCN(c2nc(OCC3(C)CCN3C)nc3c(F)c(-c4cccc5ccc(F)c(Cl)c45)ncc23)C[C@@H]1CC#N (stereo partly drawn) [Example 161] |

From patent US11548888B2, “KRas G12C inhibitors” (Mirati Therapeutics, Inc., priority 2019, dated 2023)
